Here are results for 13 compounds from ChEMBL document CHEMBL1201862, “PubChem BioAssay data set” (2004).

Molecules are shown by their SMILES.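 The compound was tested at five concentrations on cells cultured in 96-well plates, with a 48-hour exposure period. The concentration for 50% growth inhibition is given as GI50.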 The source made the active and inactive calls. Cut-off read from the data, not from the text of the source: active = GI50 up to about 1.1 µM and inactive = higher. Bounds are passed on as bounds.

Experiment in all cases: growth of human tumour cells (NCI), 48 h
For assay [1], the system named is SF-539.
Assay [2] has as its system TK-10.
In assay [3] the test system is A549.
In assay [4] the test system is SK-MEL-5.
Assay [5] concerns CCRF-CEM.
Assay [6] concerns NCI-H23.
For assay [7], the system named is OVCAR-5.
Assay [8] has as its system HOP-92.
In assay [9] the test system is LOX IMVI.
Assay [10] has as its system Malme-3M.
Assay [11] concerns HT-29.
For assay [12], the system named is SN12C.
The test system of assay [13] is HOP-62.
The subject of assay [14] is A498.
For assay [15], the system named is SK-MEL-2.
The test system of assay [16] is PC-3.
Assay [17] concerns NCI/ADR-RES.
The subject of assay [18] is MCF7.

In the case of `Clc1ccc(C[P+](c2ccccc2)(c2ccccc2)c2ccccc2)cc1Cl`, the GI50 is 4.4 µM (inactive) in [1]; 5.05 µM (inactive) in assay [2]; 4.49 µM (inactive) in assay [3]; 1.42 µM (inactive) in assay [4]; 3.07 µM (inactive) in assay [5]; 2.62 µM (inactive) in [6]. For the same compound, the GI50 in assay [7] is 5.27 µM (inactive); in assay [8] it was 1.62 µM (inactive); in assay [9] it was 1.55 µM (inactive); in assay [10], 2.53 µM (inactive); in [11], 1.91 µM (inactive); in assay [12], 4.04 µM (inactive). Further, the GI50 in [13] was 9.08 µM (inactive); in assay [14], 12.6 µM (inactive); in assay [15] it was 2.15 µM (inactive).

For `O=C(/C=C/c1ccc(OCc2ccccc2)c(OCc2ccccc2)c1)OCc1ccccc1`, the GI50 in [1], in assay [16], in assay [2], in [3], in assay [4] and in assay [6] was > 100 µM (inactive) each time. Further, the GI50 in [7], in assay [8], in assay [9], in assay [10], in [11] and in [12] was > 100 µM (inactive) each time. Moreover, the GI50 in assay [17], in assay [18], in [13], in assay [14] and in assay [15] was > 100 µM (inactive) throughout.

In the case of `Cc1ccc([N+](=O)[O-])cc1NC(=O)C(=O)Cc1occc(=O)c1O`, the GI50 in [1], in [2], in [3], in assay [4], in assay [5] and in [7] was > 100 µM (inactive) throughout. Besides, the GI50 in assay [8], in [9], in assay [11], in [12], in [13] and in assay [14] was > 100 µM (inactive) throughout.

With `CCCCCc1c(CCCC)c(O)nc2nc(NC(=O)CCCC)ccc12`, the GI50 in [1], in [16], in assay [2], in assay [3], in assay [4] and in assay [5] was > 100 µM (inactive) each time. In addition, the GI50 in assay [6], in assay [7], in assay [8], in assay [9], in assay [10] and in [12] was > 100 µM (inactive) each time. The GI50 in assay [17], in [18], in [13], in assay [14] and in [15] was > 100 µM (inactive) each time.

Regarding `Cn1c(/C=C/CO)c(CO)c2c1C(=O)C=C(N1CC1)C2=O` [APAZIQUONE], the GI50 is < 0.01 µM (active) in assay [1]; < 0.01 µM (active) in assay [3]; < 0.01 µM (active) in assay [4]; 0.184 µM (active) in [5]; < 0.0122 µM (active) in assay [7]; 0.222 µM (active) in [8]. Besides, the GI50 in assay [9], in assay [10], in assay [11], in assay [12], in [17] and in assay [18] was < 0.01 µM (active) each time. The GI50 in assay [13] is < 0.01 µM (active); in assay [14] it was < 0.0124 µM (active); in assay [15], < 0.01 µM (active).

`CC(C)=NN/C=N\C(C#N)=C(/N)C#N`: the GI50 was > 100 µM (inactive) in assay [1]; > 100 µM (inactive) in assay [16]; > 100 µM (inactive) in assay [2]; > 100 µM (inactive) in assay [3]; 25.8 µM (inactive) in assay [4]; > 100 µM (inactive) in [5]. In addition, the GI50 is > 100 µM (inactive) in assay [6]; > 100 µM (inactive) in assay [7]; 69.2 µM (inactive) in [10]; > 100 µM (inactive) in assay [11]; > 100 µM (inactive) in assay [17]; > 100 µM (inactive) in assay [18]. In addition, the GI50 in assay [13] and in assay [15] was > 100 µM (inactive) in each case.

Consider `CNCCN[C@@H]1c2cc3c(cc2[C@@H](c2cc(OC)c(O)c(OC)c2)[C@H]2C(=O)OC[C@@H]21)OCO3`, for which the GI50 was 0.0678 µM (active) in assay [1]; 0.649 µM (active) in assay [16]; 1.49 µM (inactive) in assay [2]; 0.0708 µM (active) in assay [3]; 0.148 µM (active) in assay [4]; 0.0138 µM (active) in assay [5]. Further, the GI50 is 0.185 µM (active) in assay [6]; 0.966 µM (active) in [7]; 0.153 µM (active) in assay [9]; 0.288 µM (active) in assay [10]; 0.494 µM (active) in assay [11]; 0.0738 µM (active) in assay [12]. For the same compound, the GI50 is 68.2 µM (inactive) in assay [17], 0.0296 µM (active) in assay [18], 0.141 µM (active) in [13] and 0.44 µM (active) in assay [15].

Regarding `Cn1c(Nc2ccccc2)c(/C=N\c2ccccc2)c(=O)n(C)c1=O`, the GI50 in assay [1] is 94 µM (inactive); in assay [16], > 100 µM (inactive); in assay [2], > 100 µM (inactive); in assay [3], > 100 µM (inactive); in assay [5], > 100 µM (inactive); in assay [6] it was 82.6 µM (inactive). Further, the GI50 in assay [7] is > 100 µM (inactive); in assay [8], 41.7 µM (inactive); in assay [9], 36.4 µM (inactive); in assay [11] it was 47.9 µM (inactive); in assay [12], 69.3 µM (inactive); in assay [17] it was 41 µM (inactive). Also, the GI50 in assay [18] is > 100 µM (inactive); in [13], 22.5 µM (inactive); in assay [14] it was 80 µM (inactive); in assay [15], > 100 µM (inactive).

Turning to `NCCCNCCSP(=O)(O)O` [AMIFOSTINE], the GI50 was > 750 µM (inactive) in [1]; > 519 µM (inactive) in assay [3]; > 750 µM (inactive) in assay [4]; 512 µM (inactive) in [5]; > 750 µM (inactive) in assay [6]; > 750 µM (inactive) in assay [7]. The GI50 was > 750 µM (inactive) in [8]; 270 µM (inactive) in assay [9]; > 335 µM (inactive) in assay [10]; > 750 µM (inactive) in [11]; > 750 µM (inactive) in [12]; > 750 µM (inactive) in [17]. In addition, the GI50 in assay [18] was > 750 µM (inactive); in assay [13] it was > 321 µM (inactive); in [14] it was > 75 µM (inactive); in [15] it was > 242 µM (inactive).

For the compound `CC1=CCC2CC1NC(=O)CCOCCC(=O)NC2(C)C` (stereo unspecified), the GI50 in assay [1], in assay [16], in [2], in assay [3], in assay [4] and in [5] was > 100 µM (inactive) in each case. Besides, the GI50 in assay [6], in [7], in [8], in [9], in assay [11] and in assay [12] was > 100 µM (inactive) each time. Besides, the GI50 in assay [17], in assay [18], in [14] and in [15] was > 100 µM (inactive) in each case.

As to `CC(=O)OCc1cc(=O)n(C)c2c3c4c(cc12)c(C)cc(=O)n4CO3`, the GI50 is 1.03 µM (active) in [1]; 1.69 µM (inactive) in [3]; 1.66 µM (inactive) in assay [4]; 0.853 µM (active) in [5]; 1.68 µM (inactive) in [6]; 2.73 µM (inactive) in assay [7]. For the same compound, the GI50 in [8] is 1.95 µM (inactive); in assay [9], 1.26 µM (inactive); in assay [10], 0.906 µM (active); in assay [11], 1.49 µM (inactive); in assay [12], 1.66 µM (inactive); in assay [17], 1 µM (active). For the same compound, the GI50 in assay [18] was 2.3 µM (inactive); in [13], 1.2 µM (inactive); in assay [14], 2.38 µM (inactive); in assay [15], 1.75 µM (inactive).

Regarding `O=c1c2ccc(S(=O)(=O)c3ccc4c(=O)n5c6ccccc6nc5c5cccc3c45)c3cccc(c32)c2nc3ccccc3n12`, the GI50 is 28.7 µM (inactive) in assay [1]; > 100 µM (inactive) in [16]; 21.8 µM (inactive) in assay [2]; > 100 µM (inactive) in assay [3]; > 100 µM (inactive) in assay [4]; 96.6 µM (inactive) in assay [6]. Further, the GI50 in [7], in assay [9], in assay [10], in assay [11], in assay [12] and in assay [17] was > 100 µM (inactive) each time. For the same compound, the GI50 in [18] was > 100 µM (inactive); in assay [13], 37.8 µM (inactive); in assay [15], 21.3 µM (inactive).

`CCCCC1(C2c3ccccc3Oc3ccccc32)C(=O)N(c2ccccc2)N(c2ccccc2)C1=O`: the GI50 was > 100 µM (inactive) in [1]; 39.1 µM (inactive) in assay [3]; 34.3 µM (inactive) in assay [4]; 22.5 µM (inactive) in [5]; 32.1 µM (inactive) in assay [6]; > 100 µM (inactive) in [7]. The GI50 was 97.5 µM (inactive) in assay [8]; 41 µM (inactive) in [9]; > 100 µM (inactive) in assay [10]; 77.1 µM (inactive) in assay [11]; > 61.9 µM (inactive) in assay [12]; 62.2 µM (inactive) in assay [17]. Also, the GI50 is 55 µM (inactive) in assay [18], > 100 µM (inactive) in [13], 64.9 µM (inactive) in assay [14] and > 100 µM (inactive) in [15].
